One molecule from US20240033237A1, “USE OF A-KETOGLUTARATE IN MANUFACTURE OF MEDICAMENT” (TONGJI UNIVERSITY, priority 2019, published 2024) can be followed below.

The subject of assay [1] is chondrocytes. The experiment in a line: Catabolic phenotype of IL-1β-stimulated mouse chondrocytes (whole-genome sequencing, q-PCR, western blot). It is filed as cell-based. The protocol: (§1) Mouse chondrocytes were obtained from 7-day-old C57BL/6 mice (Shanghai Slac laboratory animal Co., Ltd.), and the procedure was as follows: under aseptic surgical conditions, bilateral knee cartilages of C57 mice were carefully stripped and digested with 0.2% neutral collagenase (Serva, Germany) for 8 h; cell precipitates were obtained by centrifugation, and the cells were resuspended in modified Eagle medium (DMEM) (Gibco, USA) containing 10% FBS, inoculated in culture dishes, and cultured with high-sugar DMEM medium (containing 10% FBS, 100 U/mL penicillin and 100 mg/L streptomycin) at 37° C. in a 5% CO2 constant temperature incubator. The medium was changed for the first time at 48 h. […] The cells were collected by centrifugation and resuspended, and the concentration was adjusted for inoculation in culture dishes. The cells were subcultured by the above method, and the obtained cells were labeled as P1, P2, P3 generations, etc.
(2) Real-Time Fluorescent Quantitative PCR (Real Time q-PCR) Analysis • 1) The P1 generation mouse chondrocytes cultured in Embodiment 1 were used, the culture medium was sucked out from the culture dish, and the cells were washed once with PBS. • 2) Extraction of total RNA • 1. chloroform (⅕ volume of RNAiso Plus) was added to the homogenate lysate, the cover of the centrifuge tube was closed tightly, and the centrifuge tube was shaken violently by hand for 15 seconds. After the solution is fully emulsified (without phase separation phenomenon), the centrifuge tube was allowed to stand at room temperature for 5 minutes. • 2. the centrifuge tube was centrifuged at 12000 g under 4° C. for 5 minutes. • 3. the centrifuge tube was carefully taken out from the centrifugal machine, at this time the homogenate was divided into three layers: a colorless supernatant, a white protein layer in the middle, and a lower organic phase with color. […] Precipitate usually occurs at the bottom of a test tube after centrifugation.
On ice, SYBR Premix Ex Taq, upstream and downstream primers of catabolic and synthetic genes of chondrocytes, ROX Reference Dye, cDNA template and dH2O were added into a test tube. After being mixed evenly, the mixture was evenly divided into PCR tubes. The PCR tubes were placed in a Q-PCR instrument to detect the product.
P1 generation mouse chondrocytes cultured in Embodiment 1 were subjected to western blot analysis through operations including the following: • 1. Collecting of protein samples: The culture medium was sucked out, and the cells were washed twice with PBS at 4° C. and then dried. 100 μl of cell lysate was added to each well, the cells were lysed on ice for 10 min, and collected into a 1.5 ml centrifuge tube. […] The protein concentration was determined by the BCA Protein Quantification Kit. […]
For orientation: A western blot detects proteins with antibodies after separation by electrophoresis.

Assay [2] deals with chondrocytes. Description: Synthetic phenotype of IL-1β-stimulated mouse chondrocytes (whole-genome sequencing, q-PCR, western blot). Format: cell-based. Here is the method:
as §1
(2) Real-Time Fluorescent Quantitative PCR (Real Time q-PCR) Analysis • 1) The P1 generation mouse chondrocytes cultured in Embodiment 1 were used, the culture medium was sucked out from the culture dish, and the cells were washed once with PBS. • 2) Extraction of total RNA • 1. chloroform (⅕ volume of RNAiso Plus) was added to the homogenate lysate, the cover of the centrifuge tube was closed tightly, and the centrifuge tube was shaken violently by hand for 15 seconds. […]
P1 generation mouse chondrocytes cultured in Embodiment 1 were subjected to western blot analysis through operations including the following: • 1. […] The protein concentration was determined by the BCA Protein Quantification Kit. […]

In assay [3] the test system is articular cartilage. Description: Mouse model of knee osteoarthritis (DMM), intra-articular injection, Safranin-O/fast green staining and OARSI score. Format: in vivo, C57BL/6 mice. The following applies: 8 weeks after DMM surgery, once a week, 5 times. The text has this:
Male C57BL/6 mice (n=30) were purchased from Shanghai Slac laboratory animal Co., Ltd. and reared to 8 weeks of age. The animal experimental operation method was reviewed and approved by the Ethics Committee of Tongji University School of Medicine. Male C57BL/6 mice reared to 8 weeks of age were anaesthetized, and a longitudinal incision was made in the medial side of the knee joint. The articular cavity was opened along the medial side of the patellar ligament, the fat pad in the intercondylar area was bluntly separated, and the meniscus tibial ligament connecting the medial meniscus was found and transected. The incision was closed after hemostasis by compression, and the mice were continued to be fed. The mice were anesthetized and sacrificed at 4, 8 and 12 weeks after surgery (n=8 for each group), and the knee joints were isolated for histological examination, forming the treatment group. Male C57BL/6 mice reared to 8 weeks of age were anaesthetized, and a longitudinal incision was made in the medial side of the knee joint. […] The damage degree of articular cartilage was observed by Safranin-O/ fast green staining and quantitatively evaluated by OARSI score. […]

On to `COC(=O)CCC(=O)C(=O)OC` [α-KG, dimethyl-α-ketoglutarate], for which the “gene and protein expressions of catabolic phenotypic genes MMP3, MMP13, ADAMTS5, NOS2 at different time periods” value in assay [1] (q-PCR and western blot, 6 h, 12 h, 24 h, 36 h, 10 ng/ml IL-1β + 7 mM α-KG) was “could inhibit the gene and protein expressions”. In addition, in assay [1] (q-PCR, 24 h, 10 ng/ml IL-1β + 7 mM α-KG), the “expression of cartilage catabolic phenotypic genes MMP3, MMP13, ADAMTS5, NOS2” value is reported as “inhibit the expression”. Moreover, the “protein expression of cartilage catabolic phenotypic genes MMP3, MMP13, ADAMTS5, NOS2” value in assay [1] (western blot, 24 h, 10 ng/ml IL-1β + 7 mM α-KG) is reported as “inhibited the protein expression”. Besides, the “expressions of catabolic phenotypes (metalloproteases MMP2, MMP3, MMP8, MMP9, MMP12, MMP13, MMP27; aggrecanases ADAMTS5, 7, 12, 15, 16, 17; NOS2) of chondrocytes” value in assay [1] (whole-genome sequencing, 10 ng/ml IL-1β + 7 mM α-KG vs IL-1β group) is listed as “suppressed”. Also, the “expressions of chondrocyte synthetic genes SOX9, COL2A1, ACAN” value in assay [2] (q-PCR, 10 ng/ml IL-1β + 7 mM α-KG) is “promote the expressions”. Further, the “protein expressions of chondrocyte synthetic genes SOX9 and COL2A” value in assay [2] (western blot, 6 h, 12 h, 24 h, 36 h, 10 ng/ml IL-1β + 7 mM α-KG) is listed as “promote the protein expressions”. Moreover, in assay [2] (whole-genome sequencing, 24 h, 10 ng/ml IL-1β + 7 mM α-KG vs IL-1β group), the “expressions of synthetic phenotypic genes (SOX9, COL2A1, ACAN, COL9A1, COL9A2, COL9A3, COL11A1, COL11A2) of chondrocytes” value was “increased”. In assay [3], the “OARSI score, damage degree of articular cartilage” value is on record as “significantly inhibit the progression of osteoarthritis”. Further, in assay [3] (DMM+αKG group vs DMM group), the “cartilage damage / progression of osteoarthritis (Safranin O/fast green histology)” value is recorded as “no significant cartilage damage”.
